We go through one molecule from patent US20230190718A1, “METHODS FOR THE TREATMENT OF PANCREATITIS AND PREVENTION OF PANCREATIC CANCER” (BOARD OF REGENTS, THE UNIVERSITY OF TEXAS SYSTEM, priority 2020, published 2023).

In this assay the test system is Caerulein-induced pancreatitis. Briefly: Pretreatment with ADM inducers in caerulein-induced pancreatitis: histology (ADM) and CD45 infiltration. The format is in vivo, mice. As to conditions: 40 mg/kg b.i.d oral gavage before and during Caerulein; 24 hours after end of Caerulein injections. An excerpt: Epigenetic modifiers: Recently, the emerging role of epigenetic regulation has led to the development of a wide spectrum of small molecules targeting selectively bromodomain and extra-terminal (BET) protein family which are currently under evaluation in preclinical model of hematological malignancies and solid tumors (Asangani et al., 2014; Delmore et al., 2011; Filippakopoulos et al., 2010). Leveraging the persistent chromatin modifications induced by an acute inflammatory event, the possibility of limiting the detrimental effects of repeated pancreatitis was tested through the administration of INCB054329, a BRD4 inhibitor currently in phase I-II clinical studies in patients with advanced malignancies (Falchook et al., 2019).
Induction of acute pancreatitis. […] Control mice received injections of pyrogen-free PBS. Mice were examined daily for health conditions and sacrificed at the indicated time points by CO2 asphyxiation and cervical dislocation.
DAPI nuclear counterstaining was also performed.

Each structure is given as a SMILES string. Entries after “also recorded” stand apart in the source; their conditions may differ.

Take `Cc1noc(C)c1-c1ccc2[nH]c(=O)n3c2c1OC[C@@H]3c1ccccn1` [INCB054329]: the “ADM induction (histological evaluation)” value was “massive induction of ADM; also recorded: significant ADM induction” and the “inflammatory infiltration (CD45 immunostaining)” value was “dramatic reduction of inflammatory infiltration; also recorded: strong suppression of inflammation”.
